Activity calls are given as the source filed them.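 How the source made its calls: active means phospho-ERK protein band moved at least 30% up or down from the DMSO-only control band; inactive means the rest.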
How the values were obtained:
[1] = target: Mitogen-activated protein kinase 1 (Homo sapiens) (UniProt P28482); assay: p-MAPK1 abundance shift in treated cells – cell-based, HCT116 colorectal carcinoma, chemiluminescent western blot, counter-screen for KLF5 inhibitor project, late-stage follow-up (AID 588643); settings: HCT116 phospho-ERK1/2 western blot, 24 h; at 10 µM; stronger effect = higher value
[2] = tested on: HCT116 phospho-ERK1/2 western blot, 24 h; assay: as above; settings: measured here: phospho-ERK fold change vs DMSO; at 10 µM; stronger effect = lower value

inhibition [1]: -20% (inactive)
Compound: CN(C(=O)COC(=O)/C=C/c1cccc([N+](=O)[O-])c1)C1CCS(=O)(=O)C1 (configuration not stated)
fold change [2]: 1.2

— PubChem BioAssay AID588643 (The Scripps Research Institute Molecular Screening Center, 2011)
